Test results taken from the supplement of paper PMC10307832.

Legend:
Test in all cases: relative viability (nuclei count vs DMSO), 5 days (fraction); higher = more cells survive
[1] = compound: C1CNCCC1C2=CC(=NN2)C3=CC=NC=C3 + CC(C)C[C@H](NC(=O)[C@H](Cc1ccccc1)NC(=O)c1cnccn1)B(O)O [Bortezomib] (partner 0.002 µM)
Procedure, shortened: (§1)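 A single step with final 0.05% Triton X-100, 1% formaldehyde and 1 ug/ml Hoechst fixed the cells and stained nuclei 5 days after treatment. Lung cancer cell lines in 1536-well plates had been treated by pin tool the day after seeding with one drug alone or a fixed anchor-drug dose plus five library-drug doses (not always all listed) in √10 steps, and nuclei were counted on 4× images. Relative viability is the ratio of nuclei in treated wells to nuclei in vehicle wells, taken as the median of duplicate plates.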

[2] = compound: O[C@H]1CC[C@H](Nc2ncc3nc(Nc4c(F)cc(F)cc4F)n([C@H]4CCOC4)c3n2)CC1 [Tanzisertib] + Nc1nc2[nH]cc(CCc3ccc(C(=O)N[C@@H](CCC(=O)O)C(=O)O)cc3)c2c(=O)[nH]1 [Pemetrexed] (partner 0.2 µM)
Procedure, shortened: as §1

[3] = compound: C1CNCCC1C2=CC(=NN2)C3=CC=NC=C3 + C[C@]1(O)C[C@@H](c2nc(-c3ccc4ccc(-c5ccccc5)nc4c3)c3c(N)nccn32)C1 [Linsitinib] (partner 1 µM)
Procedure, shortened: as §1

[4] = compound: C[C@@H](N)c1ccc(C(=O)Nc2ccnc3[nH]ccc23)cc1 + CC(=O)c1c(C)c2cnc(Nc3ccc(N4CCNCC4)cn3)nc2n(C2CCCC2)c1=O [Palbociclib] (partner 0.5 µM)
Procedure, shortened: as §1

Cell Line	relative viability ([1]; first compound 0.08 µM)	relative viability ([1]; first compound 0.8 µM)	relative viability ([1]; first compound 2.53 µM)	relative viability ([1]; first compound 8 µM)	relative viability ([2]; first compound 0.08 µM)	relative viability ([2]; first compound 0.253 µM)	relative viability ([2]; first compound 0.8 µM)	relative viability ([2]; first compound 2.53 µM)	relative viability ([2]; first compound 8 µM)	relative viability ([3]; first compound 0.08 µM)	relative viability ([3]; first compound 0.8 µM)	relative viability ([3]; first compound 2.53 µM)	relative viability ([3]; first compound 8 µM)	relative viability ([4]; first compound 0.04 µM)	relative viability ([4]; first compound 0.1265 µM)	relative viability ([4]; first compound 0.4 µM)	relative viability ([4]; first compound 1.265 µM)	relative viability ([4]; first compound 4 µM)
201T	1.06	1.07	1.08	1.1	0.321	0.322	0.325	0.314	0.298	1.02	1.01	0.996	1.04	0.367	0.342	0.376	0.359	0.415
PC-14	0.897	0.951	0.945	0.789	0.134	0.131	0.129	0.0897	0.104	0.997	0.992	1.03	0.941	0.552	0.537	0.483	–	0.367
NCI-H1792	0.96	0.998	1.07	0.993	1.2	0.694	0.876	0.763	0.625	0.521	0.514	0.566	0.534	0.685	0.698	0.699	0.771	0.627
COR-L23	0.872	0.993	0.95	0.981	0.2	0.209	0.188	0.201	0.191	0.931	1.05	0.984	0.918	0.231	0.357	0.305	0.235	0.215
HOP-62	0.479	0.84	1.15	0.728	0.301	0.346	0.31	0.315	0.353	0.892	1.12	1.19	1.08	0.454	0.463	0.449	0.411	0.397
NCI-H1915	1	0.977	0.932	0.934	0.565	0.451	0.486	0.501	0.49	1.05	1.14	1.1	1.11	–	0.504	0.52	–	0.431
BEN	0.724	0.592	0.852	0.96	0.755	0.923	1	0.909	0.605	0.689	0.984	0.921	0.913	0.483	0.425	0.438	0.587	0.449
NCI-H1437	0.495	0.607	0.552	0.462	0.321	0.327	0.322	0.315	0.263	0.986	1.03	1.16	1.05	0.335	0.315	0.386	0.369	0.482
EMC-BAC-2	0.978	1.19	1.2	1.03	0.429	0.427	0.432	0.451	0.469	0.78	0.806	0.818	0.771	0.473	0.501	0.474	0.48	0.436
NCI-H647	0.935	0.796	1.07	0.86	0.204	0.185	0.18	0.151	0.156	1.28	1.45	1.38	1.09	0.472	0.496	0.417	0.308	0.333
LXF-289	1.05	1.14	0.968	0.962	0.902	0.923	1.01	0.915	1.02	0.963	1.04	0.981	0.9	0.613	0.611	0.565	0.61	0.512
LOU-NH91	0.52	0.503	0.484	0.498	0.42	0.42	0.399	0.403	0.387	0.85	1	1.14	0.962	0.581	0.527	0.533	0.536	0.448
NCI-H23	0.729	0.866	1.1	1.24	0.785	0.761	0.682	0.681	0.584	0.5	0.642	0.675	0.644	0.532	0.644	0.545	–	0.441
NCI-H1993	1.02	0.999	1.21	1.34	0.621	0.585	0.605	0.561	0.54	0.748	0.67	0.732	0.798	0.688	0.74	–	0.595	0.607
HCC-827	1	1.02	1.06	1.01	0.266	0.229	0.25	0.251	0.175	0.992	0.963	1.05	0.956	–	0.442	0.478	0.476	0.433
NCI-H650	0.803	0.689	0.949	0.734	0.885	1.03	0.969	1.09	0.576	0.751	0.727	1.06	0.75	–	0.341	0.311	–	0.327
CAL-12T	1.08	1.01	1.05	1.07	1.06	1.24	1.12	1.21	1.18	0.792	0.754	0.9	0.872	0.558	0.438	0.519	0.161	0.428
NCI-H838	0.823	0.939	0.739	0.73	0.234	0.255	0.254	0.233	0.25	0.969	1.05	1.07	0.983	0.183	0.221	0.229	0.192	0.183

Cell Line	relative viability ([1]; first compound 0.08 µM)	relative viability ([1]; first compound 0.8 µM)	relative viability ([1]; first compound 2.53 µM)	relative viability ([1]; first compound 8 µM)	relative viability ([2]; first compound 0.08 µM)	relative viability ([2]; first compound 0.253 µM)	relative viability ([2]; first compound 0.8 µM)	relative viability ([2]; first compound 2.53 µM)	relative viability ([2]; first compound 8 µM)	relative viability ([3]; first compound 0.08 µM)	relative viability ([3]; first compound 0.8 µM)	relative viability ([3]; first compound 2.53 µM)	relative viability ([3]; first compound 8 µM)	relative viability ([4]; first compound 0.04 µM)	relative viability ([4]; first compound 0.1265 µM)	relative viability ([4]; first compound 0.4 µM)	relative viability ([4]; first compound 1.265 µM)	relative viability ([4]; first compound 4 µM)
NCI-H2228	0.929	1.22	1.07	0.863	0.371	0.288	0.378	0.355	0.348	0.734	0.869	0.503	0.811	0.808	0.806	0.909	0.352	0.839
RERF-LC-KJ	1.09	1.22	1.16	1.12	0.429	0.468	0.486	0.423	0.442	0.925	0.931	0.903	0.903	1.05	1.12	1.22	1.23	0.943
NCI-H661	0.916	0.825	0.801	1.01	0.896	0.896	0.872	0.919	0.913	0.534	0.524	0.528	0.584	0.388	0.464	0.41	0.35	0.362
HCC-366	0.856	1.11	1.08	1.04	–	0.201	0.152	0.204	0.328	0.55	0.756	0.712	0.622	0.474	0.392	0.379	0.455	0.383
SK-LU-1	1	–	1.38	1.27	1.07	0.949	1.02	0.969	0.979	1.05	1.07	1.19	1.23	0.42	0.44	0.465	0.273	0.338
HCC-44	0.911	0.93	1	0.886	0.642	0.637	0.597	0.624	0.688	0.66	0.595	0.698	0.684	0.929	0.96	1.02	1.15	1.02
A-427	1.03	0.955	1.06	0.935	0.958	0.99	0.998	1.04	0.916	1.09	1.09	1.15	1.07	0.472	0.553	0.388	0.432	0.421
SW 1573	0.75	1.22	1.11	1.12	0.809	0.84	0.805	0.839	0.683	0.815	0.786	0.902	0.952	0.491	0.416	0.385	0.356	0.341
NCI-H322M	1.27	1.19	1.39	1.29	0.644	0.657	0.566	0.621	0.548	0.874	0.71	0.899	0.888	0.534	0.584	0.526	0.515	0.524
NCI-H2023	0.793	0.958	1.24	0.983	0.287	0.222	0.215	0.202	0.205	0.62	0.671	0.629	0.647	0.371	0.409	0.424	–	0.35
NCI-H2405	0.94	0.658	1.02	1	1.1	1.1	1	1.24	0.955	0.979	0.771	1.07	0.913	–	0.505	0.494	0.3	0.233
LCLC-103H	1.06	0.936	1.3	1.12	0.521	0.472	0.451	0.432	0.468	1.07	0.846	1.1	0.951	0.473	0.478	0.433	0.423	0.388
NCI-H460	0.892	1.49	1.06	1.12	0.0668	0.0601	0.0628	0.0601	0.0429	0.421	1.22	0.818	0.849	0.076	0.183	0.343	0.154	0.224
NCI-H1755	0.991	0.943	1.04	0.932	0.368	0.451	0.565	0.408	0.404	1.01	0.966	0.969	0.916	0.432	0.436	0.437	0.407	0.367
NCI-H1734	0.97	1.04	1.21	1.03	0.428	0.423	0.408	0.403	0.402	0.845	0.885	0.908	0.811	0.316	0.355	0.325	0.338	0.277
EPLC-272H	0.971	0.913	0.965	0.993	0.296	0.306	0.388	0.475	0.289	1.15	1.15	1.22	1.17	0.39	0.356	0.384	–	0.427
NCI-H2126	1.1	1.12	1.16	1.12	0.674	0.69	0.728	0.723	0.515	0.718	0.636	0.789	0.748	0.34	0.351	0.364	0.378	0.389
